This is an account of results in patent publication US11981658B2, “Substituted aminopyridine compounds as EGFR inhibitors” (YUHAN CORPORATION, priority 2021, dated 2024).

In one assay the target is EGFR Del19/C797S (Homo sapiens, UniProt P00533, C797S/DEL746-750). Nature of the assay: Biochemical EGFR kinase inhibition assay (Lance Ultra TR-FRET), double mutant del19/C797S. Summed up: (§1)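 Step 1: compound in kinase buffer, 0.003–10 μM. Step 2: kinase reaction 1 h at room temperature. Step 4: TR-FRET read at 615/665 nm; IC50 calculated.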
Sequence of EGFR Del19/C797S (P00533 with tags, fused parts or gaps DEL746-750/C797S): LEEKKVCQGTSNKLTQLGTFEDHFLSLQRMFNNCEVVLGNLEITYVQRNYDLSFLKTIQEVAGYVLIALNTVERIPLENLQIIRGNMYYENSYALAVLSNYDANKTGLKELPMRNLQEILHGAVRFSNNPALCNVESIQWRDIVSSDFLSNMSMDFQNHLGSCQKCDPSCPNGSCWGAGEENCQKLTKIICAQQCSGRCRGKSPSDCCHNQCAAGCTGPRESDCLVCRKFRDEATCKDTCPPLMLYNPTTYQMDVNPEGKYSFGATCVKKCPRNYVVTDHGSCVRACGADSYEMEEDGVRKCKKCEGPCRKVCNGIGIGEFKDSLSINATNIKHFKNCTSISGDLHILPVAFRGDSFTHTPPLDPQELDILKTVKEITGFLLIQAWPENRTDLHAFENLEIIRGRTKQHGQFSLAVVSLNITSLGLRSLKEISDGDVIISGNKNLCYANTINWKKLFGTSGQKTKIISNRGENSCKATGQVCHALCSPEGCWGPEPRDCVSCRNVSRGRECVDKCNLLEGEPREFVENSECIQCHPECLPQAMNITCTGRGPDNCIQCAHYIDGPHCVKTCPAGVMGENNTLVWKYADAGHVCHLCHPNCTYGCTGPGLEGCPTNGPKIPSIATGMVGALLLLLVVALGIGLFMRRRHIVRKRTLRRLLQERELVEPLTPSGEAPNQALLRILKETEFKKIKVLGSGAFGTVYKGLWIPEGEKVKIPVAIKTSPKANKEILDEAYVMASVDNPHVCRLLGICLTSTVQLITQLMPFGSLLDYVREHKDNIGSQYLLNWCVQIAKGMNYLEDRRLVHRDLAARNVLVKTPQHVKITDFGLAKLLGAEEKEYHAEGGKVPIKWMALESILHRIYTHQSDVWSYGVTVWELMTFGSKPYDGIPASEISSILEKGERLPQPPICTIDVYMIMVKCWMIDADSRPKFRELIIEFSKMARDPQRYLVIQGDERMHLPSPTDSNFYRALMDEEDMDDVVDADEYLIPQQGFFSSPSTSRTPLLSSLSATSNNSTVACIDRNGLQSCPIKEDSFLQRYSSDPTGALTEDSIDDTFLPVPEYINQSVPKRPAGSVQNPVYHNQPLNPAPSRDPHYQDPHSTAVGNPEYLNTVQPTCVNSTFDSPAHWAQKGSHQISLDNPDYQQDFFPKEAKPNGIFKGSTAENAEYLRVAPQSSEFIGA
(In general: In TR-FRET formats the signal depends on donor and acceptor labels being close together.)

For the next assay, the target named is EGFR Del19/T790M/C797S (Homo sapiens, UniProt P00533, C797S/DEL746-750/T790M). Nature of the assay: Biochemical EGFR kinase inhibition assay (Lance Ultra TR-FRET), triple mutant del19/T790M/C797S. The procedure, abridged: as §1
Sequence of EGFR Del19/T790M/C797S (P00533 with tags, fused parts or gaps DEL746-750/T790M/C797S): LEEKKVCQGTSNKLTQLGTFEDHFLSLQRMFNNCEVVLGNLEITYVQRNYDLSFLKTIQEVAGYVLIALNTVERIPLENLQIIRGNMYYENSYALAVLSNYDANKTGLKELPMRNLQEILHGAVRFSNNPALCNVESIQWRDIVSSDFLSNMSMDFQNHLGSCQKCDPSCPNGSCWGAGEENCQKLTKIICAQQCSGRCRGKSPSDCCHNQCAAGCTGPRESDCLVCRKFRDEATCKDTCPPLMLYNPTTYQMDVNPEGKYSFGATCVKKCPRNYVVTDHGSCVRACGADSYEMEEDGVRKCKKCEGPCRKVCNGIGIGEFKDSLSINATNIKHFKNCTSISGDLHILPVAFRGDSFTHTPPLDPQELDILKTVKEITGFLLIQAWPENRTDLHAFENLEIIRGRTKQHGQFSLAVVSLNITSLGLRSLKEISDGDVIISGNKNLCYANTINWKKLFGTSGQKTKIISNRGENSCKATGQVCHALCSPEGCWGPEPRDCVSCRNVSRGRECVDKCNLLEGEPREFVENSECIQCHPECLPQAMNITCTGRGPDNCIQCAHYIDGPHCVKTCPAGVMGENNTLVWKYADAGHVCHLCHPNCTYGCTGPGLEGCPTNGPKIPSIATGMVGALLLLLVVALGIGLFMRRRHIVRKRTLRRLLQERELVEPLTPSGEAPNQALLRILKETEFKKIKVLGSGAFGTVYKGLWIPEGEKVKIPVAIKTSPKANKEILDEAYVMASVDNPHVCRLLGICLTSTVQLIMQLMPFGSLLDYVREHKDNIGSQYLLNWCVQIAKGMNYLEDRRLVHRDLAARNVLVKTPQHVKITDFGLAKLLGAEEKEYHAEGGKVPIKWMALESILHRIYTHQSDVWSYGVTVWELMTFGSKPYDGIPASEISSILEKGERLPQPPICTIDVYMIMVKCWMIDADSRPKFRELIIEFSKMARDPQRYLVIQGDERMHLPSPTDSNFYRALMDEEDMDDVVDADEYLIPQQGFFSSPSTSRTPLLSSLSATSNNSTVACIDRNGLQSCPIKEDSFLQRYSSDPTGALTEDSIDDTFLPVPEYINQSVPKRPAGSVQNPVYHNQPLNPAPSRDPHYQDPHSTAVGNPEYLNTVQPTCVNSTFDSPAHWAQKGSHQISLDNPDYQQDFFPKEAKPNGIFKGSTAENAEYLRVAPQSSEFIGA
Another assay addresses EGFR wildtype (WT) (Homo sapiens, UniProt P00533). The assay can be described thus: Biochemical EGFR kinase inhibition assay (Lance Ultra TR-FRET), wildtype. Summed up: as §1
The target of another assay is EGFR L858R/T790M/C797S (Homo sapiens, UniProt P00533, C797S/L858R/T790M). Nature of the assay: Biochemical EGFR kinase inhibition assay (Lance Ultra TR-FRET), triple mutant L858R/T790M/C797S. Summed up: as §1
Another assay addresses EGFR L858R/C797S (Homo sapiens, UniProt P00533, C797S/L858R). The assay can be described thus: Biochemical EGFR kinase inhibition assay (Lance Ultra TR-FRET), double mutant L858R/C797S. The procedure, abridged:
as §1

The mark [1] stands for this setting: IC50 Del19/C797S (nM), 100 μM ATP.
[2] abbreviates: Km ATP, read-out: IC50 Del19/C797S (nM), Km ATP.
Where [3] appears, read: IC50 Del19/T790M/C797S (nM), 100 μM ATP.
Setting [4] is: Km ATP, read-out: IC50 Del19/T790M/C797S (nM), Km ATP.
[5] abbreviates: Km ATP, read-out: IC50 WT (nM), Km ATP.
[6] abbreviates: IC50 L858R/T790M/C797S (nM), 100 μM ATP.
Setting [7] is: Km ATP, read-out: IC50 L858R/T790M/C797S (nM), Km ATP.
Setting [8] is: IC50 L858R/C797S (nM), 100 μM ATP.
Setting [9] is: Km ATP, read-out: IC50 L858R/C797S (nM), Km ATP.

Each structure is given as a SMILES string. Like-named read-outs stand apart in the source and are kept apart here. Bounds are passed on as bounds.

Sequence of EGFR wildtype (WT) (P00533 25-1210): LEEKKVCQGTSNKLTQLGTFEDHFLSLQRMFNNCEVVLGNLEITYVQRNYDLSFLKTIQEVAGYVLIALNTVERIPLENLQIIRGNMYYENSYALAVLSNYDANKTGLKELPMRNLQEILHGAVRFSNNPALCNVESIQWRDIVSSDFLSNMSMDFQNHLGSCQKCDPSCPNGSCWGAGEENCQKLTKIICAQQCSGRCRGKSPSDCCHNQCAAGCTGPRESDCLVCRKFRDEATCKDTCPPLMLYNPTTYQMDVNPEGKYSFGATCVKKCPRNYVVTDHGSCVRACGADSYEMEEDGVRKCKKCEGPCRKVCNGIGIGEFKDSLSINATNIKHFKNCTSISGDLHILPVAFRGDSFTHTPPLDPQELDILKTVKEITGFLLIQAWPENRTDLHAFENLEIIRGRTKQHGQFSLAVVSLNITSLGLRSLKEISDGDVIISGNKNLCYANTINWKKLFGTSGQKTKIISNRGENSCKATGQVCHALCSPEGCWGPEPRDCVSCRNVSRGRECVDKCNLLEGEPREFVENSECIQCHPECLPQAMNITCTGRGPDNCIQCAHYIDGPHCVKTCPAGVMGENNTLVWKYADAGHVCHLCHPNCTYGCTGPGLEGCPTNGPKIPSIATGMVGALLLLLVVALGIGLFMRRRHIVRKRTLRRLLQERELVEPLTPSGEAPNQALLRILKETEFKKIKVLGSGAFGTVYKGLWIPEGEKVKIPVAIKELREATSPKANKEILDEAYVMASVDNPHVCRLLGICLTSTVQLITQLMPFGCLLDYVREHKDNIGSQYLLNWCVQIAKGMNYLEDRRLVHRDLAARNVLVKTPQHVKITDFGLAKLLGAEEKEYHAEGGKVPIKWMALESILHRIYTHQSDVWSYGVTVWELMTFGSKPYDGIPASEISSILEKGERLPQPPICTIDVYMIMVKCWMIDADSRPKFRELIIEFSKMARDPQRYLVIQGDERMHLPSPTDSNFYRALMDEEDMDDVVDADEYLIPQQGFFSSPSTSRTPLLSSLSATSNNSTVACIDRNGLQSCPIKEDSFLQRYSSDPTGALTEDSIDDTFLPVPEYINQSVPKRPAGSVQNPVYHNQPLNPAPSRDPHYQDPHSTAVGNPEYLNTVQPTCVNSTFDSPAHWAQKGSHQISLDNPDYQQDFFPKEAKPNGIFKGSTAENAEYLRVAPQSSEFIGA
Sequence of EGFR L858R/C797S (P00533 25-1210 C797S/L858R): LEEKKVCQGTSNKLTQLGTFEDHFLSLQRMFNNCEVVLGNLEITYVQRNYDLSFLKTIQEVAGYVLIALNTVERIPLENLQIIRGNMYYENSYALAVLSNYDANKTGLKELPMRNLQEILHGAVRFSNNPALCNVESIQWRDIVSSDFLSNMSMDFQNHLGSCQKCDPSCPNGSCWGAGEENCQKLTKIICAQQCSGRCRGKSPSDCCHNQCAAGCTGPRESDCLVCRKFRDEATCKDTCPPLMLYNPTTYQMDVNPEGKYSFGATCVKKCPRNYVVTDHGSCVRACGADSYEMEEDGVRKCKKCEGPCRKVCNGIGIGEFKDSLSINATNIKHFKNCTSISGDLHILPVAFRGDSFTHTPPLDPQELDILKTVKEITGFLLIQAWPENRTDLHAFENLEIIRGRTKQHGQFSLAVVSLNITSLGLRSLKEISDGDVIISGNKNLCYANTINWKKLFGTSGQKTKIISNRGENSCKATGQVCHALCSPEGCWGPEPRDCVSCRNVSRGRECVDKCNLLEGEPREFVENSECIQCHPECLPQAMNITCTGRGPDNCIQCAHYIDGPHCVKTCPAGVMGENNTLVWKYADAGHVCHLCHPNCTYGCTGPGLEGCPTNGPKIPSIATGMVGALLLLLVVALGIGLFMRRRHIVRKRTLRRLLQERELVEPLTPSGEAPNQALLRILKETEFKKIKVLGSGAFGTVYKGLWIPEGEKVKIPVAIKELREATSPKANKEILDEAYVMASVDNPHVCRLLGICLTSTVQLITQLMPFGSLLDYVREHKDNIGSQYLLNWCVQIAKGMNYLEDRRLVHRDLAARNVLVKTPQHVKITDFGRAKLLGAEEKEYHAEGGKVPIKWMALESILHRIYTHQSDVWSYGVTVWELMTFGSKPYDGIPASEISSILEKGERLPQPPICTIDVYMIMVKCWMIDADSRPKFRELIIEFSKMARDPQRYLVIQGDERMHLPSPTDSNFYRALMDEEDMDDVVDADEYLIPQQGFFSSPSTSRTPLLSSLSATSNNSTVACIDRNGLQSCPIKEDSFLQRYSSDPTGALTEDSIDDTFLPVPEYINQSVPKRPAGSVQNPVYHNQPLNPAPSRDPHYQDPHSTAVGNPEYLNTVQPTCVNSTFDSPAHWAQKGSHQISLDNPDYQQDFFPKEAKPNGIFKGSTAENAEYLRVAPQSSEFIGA

For the compound `C[C@]1(O)CCCN(c2cc(Nc3ccnc(-c4cnn(S(=O)(=O)C5CC5)c4)n3)ncc2C#Cc2cnn(CCF)c2)C1` [Example 447, (S)-1-(2-((2-(1-(Cyclopropylsulfonyl)-1H-pyrazol-4-yl)pyrimidin-4-yl)amino)-5-((1-(2-fluoroethyl)-1H-pyrazol-4-yl)ethynyl)pyridin-4-yl)-3-methylpiperidin-3-ol], the IC50 against EGFR Del19/C797S (setting [1]) is 2.1 nM; at EGFR Del19/C797S (setting [2]) it was 1.5 nM; at EGFR Del19/T790M/C797S (setting [3]), 0.4 nM; on EGFR Del19/T790M/C797S (setting [4]), 0.3 nM; against EGFR wildtype (WT) (IC50 WT (nM), 100 μM ATP), over 10000 nM; at EGFR wildtype (WT) (setting [5]), 16.9 nM. Also, the IC50 against EGFR L858R/T790M/C797S (setting [6]) is 0.5 nM; on EGFR L858R/T790M/C797S (setting [7]), 0.2 nM; on EGFR L858R/C797S (setting [8]) it was 59.8 nM; at EGFR L858R/C797S (setting [9]), 3.5 nM.
Consider `CC1(CO)CCN(c2cc(Nc3ccnc(-c4cnn(S(=O)(=O)C5CC5)c4)n3)ncc2C#CC2(O)CCC2)CC1` [Example 351, 1-((6-((2-(1-(Cyclopropylsulfonyl)-1H-pyrazol-4-yl)pyrimidin-4-yl)amino)-4-(4-(hydroxymethyl)-4-methylpiperidin-1-yl)pyridin-3-yl)ethynyl)cyclobutan-1-ol], for which the IC50 was 3.7 nM against EGFR Del19/C797S (setting [1]); 4.9 nM at EGFR Del19/C797S (setting [2]); 1.2 nM against EGFR Del19/T790M/C797S (setting [3]); 1.6 nM at EGFR Del19/T790M/C797S (setting [4]); 7620 nM at EGFR wildtype (WT) (IC50 WT (nM), 100 μM ATP); 44.2 nM at EGFR wildtype (WT) (setting [5]). Moreover, the IC50 on EGFR L858R/T790M/C797S (setting [6]) amounted to 1.6 nM; at EGFR L858R/T790M/C797S (setting [7]) it was 0.8 nM; against EGFR L858R/C797S (setting [8]), 77.8 nM; on EGFR L858R/C797S (setting [9]), 12.8 nM.
As for `CN(C)C[C@H]1CC[C@@H](Nc2cc(Nc3ccnc(-c4cnn(S(=O)(=O)C5CC5)c4)n3)ncc2C#Cc2cnn(C3CC3)c2)CC1` [Example 313, 5-((1-Cyclopropyl-1H-pyrazol-4-yl)ethynyl)-N^2-(2-(1-(cyclopropylsulfonyl)-1H-pyrazol-4-yl)pyrimidin-4-yl)-N^4-((1s,4s)-4-((dimethylamino)methyl)cyclohexyl)pyridine-2,4-diamine], the IC50 came out at 1.2 nM at EGFR Del19/C797S (ATP at Km, read-out: IC50 Del19/C797S (nM), Km ATP); 2 nM on EGFR Del19/C797S (setting [1]); 0.3 nM at EGFR Del19/T790M/C797S (ATP at Km, read-out: IC50 Del19/T790M/C797S (nM), Km ATP); 0.4 nM against EGFR Del19/T790M/C797S (setting [3]); 10.7 nM at EGFR wildtype (WT) (ATP at Km, read-out: IC50 WT (nM), Km ATP); 4690 nM against EGFR wildtype (WT) (IC50 WT (nM), 100 μM ATP). The IC50 at EGFR L858R/T790M/C797S (ATP at Km, read-out: IC50 L858R/T790M/C797S (nM), Km ATP) is 0.1 nM; at EGFR L858R/T790M/C797S (setting [6]), 0.3 nM; on EGFR L858R/C797S (ATP at Km, read-out: IC50 L858R/C797S (nM), Km ATP) it was 0.9 nM; against EGFR L858R/C797S (setting [8]), 9 nM.
`O=S(=O)(C1CC1)n1cc(-c2nccc(Nc3cc(N[C@H]4CC[C@@H](O)CC4)c(C#Cc4ccsc4)cn3)n2)cn1` [Example 217, (1s,4s)-4-((2-((2-(1-(Cyclopropylsulfonyl)-1H-pyrazol-4-yl)pyrimidin-4-yl)amino)-5-(thiophen-3-ylethynyl)pyridin-4-yl)amino)cyclohexan-1-ol]: the IC50 against EGFR Del19/C797S (setting [1]) was 28.3 nM; at EGFR Del19/T790M/C797S (setting [3]), 2.6 nM; at EGFR wildtype (WT) (IC50 WT (nM), 100 μM ATP) it was over 10000 nM; against EGFR L858R/T790M/C797S (setting [6]), 14.5 nM; on EGFR L858R/C797S (setting [8]) it was 238 nM.
`CC1(O)CC2(CCN(c3cc(Nc4ccnc(-c5cnn(S(=O)(=O)C6CC6)c5)n4)ncc3C#Cc3cnn(C(F)(F)F)c3)CC2)C1` [Example 104, 7-(2-((2-(1-(Cyclopropylsulfonyl)-1H-pyrazol-4-yl)pyrimidin-4-yl)amino)-5-((1-(trifluoromethyl)-1H-pyrazol-4-yl)ethynyl)pyridin-4-yl)-2-methyl-7-azaspiro[3.5]nonan-2-ol]: the IC50 is 12.4 nM against EGFR Del19/C797S (setting [1]); 9.7 nM on EGFR Del19/C797S (Km ATP, read-out: IC50 Del19/C797S (nM) Km ATP); 4.1 nM on EGFR Del19/T790M/C797S (setting [3]); 3.1 nM on EGFR Del19/T790M/C797S (Km ATP, read-out: IC50 Del19/T790M/C797S (nM) Km ATP); over 10000 nM against EGFR wildtype (WT) (IC50 WT (nM), 100 μM ATP); 89.4 nM on EGFR wildtype (WT) (Km ATP, read-out: IC50 WT (nM) Km ATP). Further, the IC50 amounted to 3 nM against EGFR L858R/T790M/C797S (setting [6]); 1.1 nM at EGFR L858R/T790M/C797S (Km ATP, read-out: IC50 L858R/T790M/C797S (nM) Km ATP); 119 nM against EGFR L858R/C797S (setting [8]); 32.3 nM on EGFR L858R/C797S (Km ATP, read-out: IC50 L858R/C797S (nM) Km ATP).
